Test results: patent US10656162B2, “Use of glu-tubulin as a biomarker of drug response to furazanobenzimidazoles” (Basilea Pharmaceutica AG, priority 2011, dated 2020)

Assays:
Assay type in all cases: cell-based, human
[1] = test system: CXF 1103 patient-derived colorectal tumour; test: Colony outgrowth assay, CXF 1103; settings: CXF 1103, colorectal cancer, ex vivo colony outgrowth
Protocol: (§1) Single cell suspensions of patient-derived tumour xenografts (maintained in nude mice) were prepared. For colony outgrowth assays, cells were plated in soft agar in 24-well plates according to the assay introduced by Hamburger & Salmon (Primary bioassay of human tumour stem cells, Science, 1977.197:461-463). 2×10^4-6×10^4 cells in 0.2 mL medium containing 0.4% agar were plated out on a bottom layer of 0.75% agar. Test compounds were applied in 0.2 mL culture medium. Every 24-well plate contained untreated controls and samples in triplicates. Cultures were incubated at 37° C. and 7.5% CO2 for 5-28 days. 24 hours prior to analysis, vital colonies were stained with a solution of metabolisable tetrazolium salt (Alley M C et al, Life Sci. 1982, 31:3071-3078) and were counted with an automatic image analysis system (Omnicon 3600, Biosys GmbH).
(§2) Relative drug effects were expressed by the ratio of the mean number of colonies in the treated wells and the control wells. IC70-values were determined by plotting compound concentrations versus relative colony counts.

[2] = test system: CXF 243 patient-derived colorectal tumour; test: Colony outgrowth assay, CXF 243; parameters: key to Response to compound (BAL27862, paclitaxel, vinblastine): Sensitive: BAL27862-sensitive tumour cells have IC70 values in the low nanomolar range; Resistant: BAL27862-resistant tumour cells are defined by IC70 values >600 nanomolar; settings: CXF 243, colorectal cancer, ex vivo colony outgrowth
Protocol: as §1, §2

[3] = test system: LXFE 211 Patient-derived lung tumour; test: Colony outgrowth assay, LXFE 211; parameters: key to Response to compound (BAL27862, paclitaxel, vinblastine): Sensitive: BAL27862-sensitive tumour cells have IC70 values in the low nanomolar range; Resistant: BAL27862-resistant tumour cells are defined by IC70 values >600 nanomolar; settings: LXFE 211, lung cancer, ex vivo colony outgrowth
Protocol: as §1, §2

[4] = test system: MEXF 1341 patient-derived melanoma; test: Colony outgrowth assay, MEXF 1341; settings: MEXF 1341, melanoma, ex vivo colony outgrowth
Protocol: as §1, §2

[5] = test system: MEXF 276 patient-derived melanoma; test: Colony outgrowth assay, MEXF 276; settings: MEXF 276, melanoma, ex vivo colony outgrowth
Protocol: as §1, §2

[6] = test system: A549 BAL27862-resistant cell line variant; test: Crystal Violet assay, BAL27862-resistant A549 versus parental line; settings: A549, 72 hours, Crystal Violet
Description: (§3) BAL27862-resistant sublines of human non-small cell lung cancer (H460 ATCC reference HTB-177; A549 ATCC reference CCL-185), ovarian cancer (SKOV3 ATCC reference HTB-77) lines were generated by long-term selection in complete cell culture medium (RPMI-1640 containing 10% FCS; Sigma-Aldrich) by stepwise increasing concentrations of BAL27862. […] The resistant sublines were expanded at the highest tolerated BAL27862 concentration and subsequently frozen and stored in liquid nitrogen.
(§4) After medium was removed, cells were fixed and stained by adding 50 μl Crystal Violet Staining (0.2% Crystal Violet in 50% Methanol) per well. Plates were incubated for 1 hour at room temperature. Subsequently the stain was decanted and plates were washed 4 times with double-distilled water. Plates were air-dried for several hours. Stain was dissolved by adding 100 μl buffer (0.1 M Tris pH 7.5, 0.2% SDS, 20% Ethanol) per well and shaking the plates. Absorbance at 590 nm was measured using a SpectraMax M2e plate reader (Molecular Devices). Anti-proliferative IC50 values were calculated from concentration response curves using GraphPad Prism software. Resistance factors were calculated as a ratio of BAL27862 IC50 in the resistant line variant versus the IC50 in the parental line.

[7] = test system: H460 BAL27862-resistant cell line variant; test: Crystal Violet assay, BAL27862-resistant H460 versus parental line; settings: H460, 72 hours, Crystal Violet
Description: as §3, §4

[8] = test system: SKOV3 resistant 1; test: Crystal Violet assay, SKOV3 resistant 1 versus parental line; settings: SKOV3 resistant 1, 72 hours, Crystal Violet
Description: as §3, §4

[9] = test system: SKOV3 resistant 2; test: Crystal Violet assay, SKOV3 resistant 2 versus parental line; settings: SKOV3 resistant 2, 72 hours, Crystal Violet
Description: as §3, §4

Row | Structure (SMILES) | Response to compound (BAL27862, paclitaxel, vinblastine) [1] | Response to compound (BAL27862, paclitaxel, vinblastine) [2] | Response to compound (BAL27862, paclitaxel, vinblastine) [3] | Response to compound (BAL27862, paclitaxel, vinblastine) [4] | Response to compound (BAL27862, paclitaxel, vinblastine) [5] | Resistance factors (ratio of IC50 BAL27862-resistant cell line variant and IC50 parental cell line) [6] | Resistance factors (ratio of IC50 BAL27862-resistant cell line variant and IC50 parental cell line) [7] | Resistance factors (ratio of IC50 BAL27862-resistant cell line variant and IC50 parental cell line) [8] | Resistance factors (ratio of IC50 BAL27862-resistant cell line variant and IC50 parental cell line) [9]
1 | CC[C@]1(O)C[C@@H]2CN(CCc3c([nH]c4ccccc34)[C@@](C(=O)OC)(c3cc4c(cc3OC)N(C)[C@H]3[C@@](O)(C(=O)OC)[C@H](OC(C)=O)[C@]5(CC)C=CCN6CC[C@]43[C@@H]65)C2)C1 [Vinblastine, vinblastine, reference compound] | Resistant (BAL27862-resistant tumour cells are defined by IC70 values >600 nanomolar) | Sensitive | Sensitive | Sensitive | Sensitive | 2.3 | 4.6 | 15.7 | 
2 | COC(=O)Nc1nc2ccc(C(=O)c3cccs3)cc2[nH]1 [Nocodazole, nocodazole] |  |  |  |  |  | 1.6 | 1.3 | 3.6 | 3.9
3 | COc1cc2c(c(OC)c1OC)-c1ccc(OC)c(=O)cc1[C@@H](NC(C)=O)CC2 [Colchicine, colchicine] |  |  |  |  |  | 0.9 | 1.6 | 2.0 | 2.8
